The source of these data is patent US9340501B2, “Marinopyrrole derivatives as anticancer agents” (H. LEE MOFFITT CANCER CENTER AND RESEARCH INSTITUTE, INC., priority 2012, dated 2016).

One assay relates to MDA-MB-468 cells. The assay is described as follows: In vitro anticancer assay against MDA-MB-468 cells. The class given is cell-based. Particulars: for inhibition at 0.5 µM: MDA-MB-468, 0.5 μM; for inhibition at 0.5 µM / inhibition at 5 µM / inhibition at 50 µM: read-out: % Inhibition at 0.5, 5, 50 μM; for inhibition at 5 µM: MDA-MB-468, 5 μM; for inhibition at 50 µM: MDA-MB-468, 50 μM. The method, then:
The anticancer activities of the novel asymmetrical marinopyrroles described herein were evaluated against MDA-MB-468 cells (Table 1). IC50 values are reported in μM.

The target of the next assay is Mcl-1 (Homo sapiens, UniProt Q07820). The settings on record: Tse et al. 2008; cited from earlier work.
Mcl-1, sequence (Q07820 whole entry, species assumed): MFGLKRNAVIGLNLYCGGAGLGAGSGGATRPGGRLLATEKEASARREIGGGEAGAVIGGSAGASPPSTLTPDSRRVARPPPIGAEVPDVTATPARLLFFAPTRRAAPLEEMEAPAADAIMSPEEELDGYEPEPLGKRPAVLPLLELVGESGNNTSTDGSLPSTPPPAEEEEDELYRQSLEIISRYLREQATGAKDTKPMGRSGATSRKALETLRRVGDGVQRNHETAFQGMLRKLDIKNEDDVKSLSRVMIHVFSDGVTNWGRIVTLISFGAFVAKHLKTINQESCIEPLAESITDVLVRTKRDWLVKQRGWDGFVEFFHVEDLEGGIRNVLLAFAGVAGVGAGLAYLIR
Another assay addresses Bcl-XL (Homo sapiens, UniProt Q07817). The settings on record: Tse et al. 2008; cited from earlier work.
In another assay the target is Bcl-2 (Homo sapiens, UniProt P10415). The settings on record: Tse et al. 2008; cited from earlier work.
Bcl-2, sequence (P10415 whole entry, species assumed): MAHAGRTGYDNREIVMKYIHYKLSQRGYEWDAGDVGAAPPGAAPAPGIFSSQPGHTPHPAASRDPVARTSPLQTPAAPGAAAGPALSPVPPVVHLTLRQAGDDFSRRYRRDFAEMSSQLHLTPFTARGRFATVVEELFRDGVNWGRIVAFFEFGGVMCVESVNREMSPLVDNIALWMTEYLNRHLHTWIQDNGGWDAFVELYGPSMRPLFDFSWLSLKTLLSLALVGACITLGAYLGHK
[1] abbreviates: Homo sapiens, MDA-MB-468, single determinations, read-out: IC50.
The mark [2] stands for this setting: Homo sapiens, MDA-MB-468, estimated from % inhibition at 0.5, 5, 50 μM, read-out: Est. IC50.
The mark [3] stands for this setting: Homo sapiens, MDA-MB-468, mean of the determinations, read-out: Mean IC50.
Setting [4] is: single determinations, read-out: IC50.
Where [5] appears, read: estimated from % inhibition at 0.5, 5, 50 μM, read-out: Est. IC50.
Where [6] appears, read: mean of the determinations, read-out: Mean IC50.

Values joined by “and” are separate entries in the source; they are usually repeats but may differ in a detail not shown here. Identical values can stand only once. Like-named read-outs stand apart in the source and are kept apart here.

Bcl-XL, sequence (Q07817 whole entry, species assumed): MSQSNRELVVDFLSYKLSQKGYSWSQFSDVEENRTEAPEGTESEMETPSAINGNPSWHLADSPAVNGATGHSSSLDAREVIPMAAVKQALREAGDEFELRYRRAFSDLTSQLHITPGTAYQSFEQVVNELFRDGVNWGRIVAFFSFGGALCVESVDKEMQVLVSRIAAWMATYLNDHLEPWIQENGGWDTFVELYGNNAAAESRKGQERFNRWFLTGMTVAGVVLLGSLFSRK

The IC50 is the midpoint of a concentration-inhibition curve. With `COc1ccc(C(=O)c2[nH]c(Cl)c(Cl)c2-n2c(C(=O)c3ccc(OC)cc3)cc(Cl)c2Cl)cc1` [Compound 39], the half-inhibitory concentration (IC50) in the assay with MDA-MB-468 cells (setting [1]) is 18.3 µM.

Turning to `COc1ccccc1C(=O)c1[nH]c(Cl)c(Cl)c1-n1c(C(=O)c2cccc3ccccc23)cc(Cl)c1Cl` [Compound 35], in the assay on MDA-MB-468 cells (setting [1]), the half-inhibitory concentration (IC50) was 10.5 µM.

By inhibition is commonly meant the relative decrease from the control value, in per cent. With `O=C(c1ccccc1O)c1[nH]c(Cl)c(Cl)c1-n1c(C(=O)c2ccc(F)cc2O)cc(Cl)c1Cl` [Compound 30], the inhibition at 0.5 µM in the assay on MDA-MB-468 cells (Homo sapiens) came out at 10.8%. The inhibition at 5 µM with MDA-MB-468 cells (Homo sapiens) stood at 78.6%. Further, the inhibition at 50 µM with MDA-MB-468 cells (Homo sapiens) is 94.7%. Also, the IC50 was 1 µM with MDA-MB-468 cells (setting [2]), 1.04 µM with MDA-MB-468 cells (setting [3]), 0.94 µM with MDA-MB-468 cells (setting [1]) and 1.14 µM in the assay on MDA-MB-468 cells (setting [4]).

With `CN(C)CC[C@H](CSc1ccccc1)Nc1ccc(S(=O)(=O)NC(=O)c2ccc(N3CCN(Cc4ccccc4-c4ccc(Cl)cc4)CC3)cc2)cc1[N+](=O)[O-]` [ABT-737], the “activity on Mcl-1” value on Mcl-1 is “only weakly target Mcl-1”. Moreover, the “concentration that inhibits Bcl-XL” value at Bcl-XL was “subnanomolar concentrations”. Further, the “concentration that inhibits Bcl-2” value on Bcl-2 is recorded as “subnanomolar concentrations”.

Regarding `O=C(c1ccccc1O)c1[nH]c(Cl)c(Cl)c1-n1c(C(=O)c2ccc(Cl)cc2O)cc(Cl)c1Cl` [Compound 2, (4-Chloro-2-hydroxyphenyl)(4,4′,5,5′-tetrachloro-2′-(2-hydroxybenzoyl)-1′H-1,3′-bipyrrol-2-yl)methanone], the 50% inhibitory concentration (IC50) worked out at 1.45 µM with MDA-MB-468 cells (setting [3]), 1.72 µM in the assay with MDA-MB-468 cells (setting [1]) and 1.17 µM with MDA-MB-468 cells (setting [4]).

In the case of `O=C(c1ccccc1O)c1[nH]c(Cl)c(Cl)c1-n1c(C(=O)c2cc(F)ccc2O)cc(Cl)c1Cl` [Compound 8], the 50% inhibitory concentration (IC50) in the assay with MDA-MB-468 cells (setting [3]) amounted to 2.14 µM; with MDA-MB-468 cells (setting [1]) it was 2.23 µM; in the assay on MDA-MB-468 cells (setting [4]), 2.05 µM.

Consider `O=C(c1ccccc1O)c1[nH]c(Cl)c(Cl)c1-n1c(C(=O)c2cc(Cl)c3ccccc3c2O)cc(Cl)c1Cl` [Compound 12], for which the IC50 in the assay on MDA-MB-468 cells (setting [3]) came out at 1.89 µM; in the assay with MDA-MB-468 cells (setting [1]) it was 1.9 µM.

By % Inhibition is commonly meant how much of the control response was suppressed. In the case of `O=C(c1ccccc1O)c1[nH]c(Cl)c(Cl)c1-n1c(C(=O)c2c([O-])cccc2F)cc(Cl)c1Cl.[Na+]` [Compound 27], in the assay on MDA-MB-468 cells (0.5 μM), the “% Inhibition at 0.5, 5, 50 μM” value was determined as 3.9%. In the assay on MDA-MB-468 cells (Homo sapiens), the inhibition at 50 µM was 96.3%. Also, in the assay with MDA-MB-468 cells (setting [5]), the concentration for half-maximal inhibition (IC50) was 25 µM.

Turning to `COc1ccccc1C(=O)c1[nH]c(Cl)c(Cl)c1-n1c(C(=O)c2cc(F)ccc2OC)cc(Cl)c1Cl` [Compound 7], the figures for the IC50 with MDA-MB-468 cells (setting [3]), with MDA-MB-468 cells (setting [1]) and in the assay on MDA-MB-468 cells (setting [4]) were 11 µM, 11.7 µM and 10.2 µM, respectively.

As to `O=C(c1ccccc1O)c1[nH]c(Cl)c(Cl)c1-n1c(C(=O)c2c(O)cccc2F)cc(Cl)c1Cl` [Compound 32], the entries for the “% Inhibition at 0.5, 5, 50 μM” value in the assay with MDA-MB-468 cells (0.5 μM) and in the assay with MDA-MB-468 cells (50 μM) were 0% and 87.7%, respectively. In addition, in the assay with MDA-MB-468 cells (setting [5]), the IC50 is 12 µM.

`O=C(c1ccccc1O)c1[nH]c(Cl)c(Cl)c1-n1c(C(=O)c2ccc(F)cc2[O-])cc(Cl)c1Cl.[Na+]` [Compound 31]: the “% Inhibition at 0.5, 5, 50 μM” value is on record as 5.6% in the assay on MDA-MB-468 cells (0.5 μM), 63.5% with MDA-MB-468 cells (5 μM) and 99.4% with MDA-MB-468 cells (50 μM). In addition, the IC50 in the assay with MDA-MB-468 cells (setting [5]) is 2 µM; with MDA-MB-468 cells (setting [6]) it was 3.15 µM; in the assay on MDA-MB-468 cells (setting [4]), 3.97 µM and 2.33 µM.

On to `O=C(c1ccccc1O)c1[nH]c(Cl)c(Cl)c1-n1c(C(=O)c2cc(Br)ccc2O)cc(Cl)c1Cl` [Compound 33], for which, in the assay on MDA-MB-468 cells (Homo sapiens), the inhibition at 0.5 µM turned out to be 10.8%, the inhibition at 5 µM is 58.7% and the inhibition at 50 µM is 99.3%. In addition, in the assay with MDA-MB-468 cells (setting [2]), the half-maximal inhibitory concentration (IC50) is 2 µM. Besides, the IC50 in the assay with MDA-MB-468 cells (setting [1]) stood at 3.87 µM.

Turning to `COc1ccccc1C(=O)c1[nH]c(Cl)c(Cl)c1-n1c(C(=O)c2cc(Cl)c3ccccc3c2O)cc(Cl)c1Cl` [Compound 11], the IC50 with MDA-MB-468 cells (setting [1]) was 10.7 µM.

Turning to `CCOC(=O)c1[nH]c(Cl)c(Cl)c1-n1c(C(=O)c2ccccc2O)cc(Cl)c1Cl` [Compound 37], the IC50 with MDA-MB-468 cells (setting [1]) worked out at 15.7 µM.

Regarding `CC1(C)CCC(c2ccc(Cl)cc2)=C(CN2CCN(c3ccc(C(=O)NS(=O)(=O)c4ccc(N[C@H](CCN5CCOCC5)CSc5ccccc5)c(S(=O)(=O)C(F)(F)F)c4)cc3)CC2)C1` [ABT-263], the “activity on Mcl-1” value on Mcl-1 was “only weakly target Mcl-1”. In addition, the “concentration that inhibits Bcl-XL” value at Bcl-XL is reported as “subnanomolar concentrations”. For the same compound, at Bcl-2, the “concentration that inhibits Bcl-2” value is “subnanomolar concentrations”.

Take `O=C(c1ccccc1O)c1[nH]c(Cl)c(Cl)c1-n1c(C(=O)c2cccc(Cl)c2O)cc(Cl)c1Cl` [Compound 3, (3-Chloro-2-hydroxyphenyl)(4,4′,5,5′-tetrachloro-2′-(2-hydroxybenzoyl)-1′H-1,3′-bipyrrol-2-yl)methanone]: in the assay with MDA-MB-468 cells (Homo sapiens), the inhibition at 0.5 µM worked out at 7%. For the same compound, in the assay with MDA-MB-468 cells (Homo sapiens), the inhibition at 5 µM was 83.4%. Besides, the inhibition at 50 µM in the assay with MDA-MB-468 cells (Homo sapiens) came to 100%. Moreover, the half-maximal inhibitory concentration (IC50) in the assay with MDA-MB-468 cells (setting [2]) was 1 µM; in the assay on MDA-MB-468 cells (setting [3]), 2.17 µM; with MDA-MB-468 cells (setting [1]), 1.95 µM; in the assay with MDA-MB-468 cells (setting [4]), 2.39 µM.

With `O=C(c1ccccc1O)c1[nH]c(Cl)c(Cl)c1-n1c(C(=O)c2ccccc2O)cc(Cl)c1Cl` [(−)-Marinopyrrole A, reference compound], the IC50 is 3.17 µM with MDA-MB-468 cells (setting [6]); 3.47 µM and 2.87 µM in the assay on MDA-MB-468 cells (setting [4]).

Take `O=C(c1ccccc1O)c1[nH]c(Cl)c(Cl)c1-n1c(C(=O)c2cc3ccccc3c(Cl)c2O)cc(Cl)c1Cl` [Compound 10]: the IC50 worked out at 1.7 µM in the assay on MDA-MB-468 cells (setting [3]), 1.94 µM with MDA-MB-468 cells (setting [1]) and 1.46 µM in the assay on MDA-MB-468 cells (setting [4]).

Regarding `COc1ccccc1C(=O)c1[nH]c(Cl)c(Cl)c1-n1c(C(=O)c2ccc(Cl)cc2OC)cc(Cl)c1Cl` [Compound 5, (4-Chloro-2-methoxyphenyl)(4,4′,5,5′-tetrachloro-2′-(2-methoxybenzoyl)-1′H-[1,3′-bipyrrole]-2-yl)methanone], the concentration for half-maximal inhibition (IC50) in the assay on MDA-MB-468 cells (setting [3]) came to 13.2 µM; with MDA-MB-468 cells (setting [1]), 14 µM; in the assay on MDA-MB-468 cells (setting [4]), 12.5 µM.

As to `COc1ccccc1C(=O)c1[nH]c(Cl)c(Cl)c1-n1c(C(=O)c2cc(F)ccc2O)cc(Cl)c1Cl` [Compound 25], in the assay with MDA-MB-468 cells (Homo sapiens), the inhibition at 0.5 µM is 2.4% and the inhibition at 50 µM came out at 95.7%. Also, the IC50 in the assay on MDA-MB-468 cells (setting [2]) is 28 µM.

Take `COc1cc(OC)c(C(=O)c2cc(Cl)c(Cl)n2-c2c(C(=O)c3ccccc3OC)[nH]c(Cl)c2Cl)cc1Cl` [Compound 9]: in the assay on MDA-MB-468 cells (setting [1]), the IC50 was 20.4 µM.

For `COc1ccccc1C(=O)c1[nH]c(Cl)c(Cl)c1-n1c(C(=O)c2cccc(Cl)c2O)cc(Cl)c1Cl` [Compound 21], in the assay on MDA-MB-468 cells (Homo sapiens), the inhibition at 0.5 µM was -0.4% and the inhibition at 50 µM stood at 99.1%. Also, in the assay with MDA-MB-468 cells (setting [2]), the half-inhibitory concentration (IC50) was 25 µM.

For the compound `O=C(c1ccccc1O)c1[nH]c(Cl)c(Cl)c1-n1c(C(=O)c2ccccc2O)cc(Cl)c1Cl` [(+)-Marinopyrrole A, reference compound], the 50% inhibitory concentration (IC50) in the assay on MDA-MB-468 cells (setting [6]) is 1.88 µM; in the assay with MDA-MB-468 cells (setting [4]), 2.14 µM and 1.64 µM.

As for `O=C(c1ccccc1O)c1[nH]c(Cl)c(Cl)c1-n1c(C(=O)c2cc(Cl)ccc2O)cc(Cl)c1Cl` [Compound 1, (5-Chloro-2-hydroxyphenyl)(4,4′,5,5′-tetrachloro-2′-(2-hydroxybenzoyl)-1′H-1,3′-bipyrrol-2-yl)methanone], in the assay on MDA-MB-468 cells (Homo sapiens), the inhibition at 0.5 µM amounted to 1.6% and the inhibition at 50 µM is 98.3%. In addition, in the assay with MDA-MB-468 cells (setting [2]), the IC50 is 9 µM.

For the compound `O=C(c1ccccc1O)c1[nH]c(Cl)c(Cl)c1-n1c(C(=O)c2ccccc2O)cc(Cl)c1Cl` (racemic) [Racemic Marinopyrrole A, reference compound], the half-inhibitory concentration (IC50) with MDA-MB-468 cells (setting [6]) was 2.03 ± 0.18 µM; in the assay with MDA-MB-468 cells (setting [4]), 2.19 µM and 1.84 µM and 2.07 µM.

Take `COc1ccc(F)cc1C(=O)c1cc(Cl)c(Cl)n1-c1c(C(=O)O)[nH]c(Cl)c1Cl` [Compound 34]: the IC50 in the assay with MDA-MB-468 cells (setting [1]) is 33.5 µM.

In the case of `CCOC(=O)c1cc(Cl)c(Cl)n1-c1c(C(=O)c2ccccc2O)[nH]c(Cl)c1Cl` [Compound 38], the figures for the IC50 with MDA-MB-468 cells (setting [3]), with MDA-MB-468 cells (setting [1]) and with MDA-MB-468 cells (setting [4]) were 2.09 µM, 2.73 µM and 1.44 µM, respectively.
